Data on 2 molecules can be found in patent US20180280435A1, “T CELL DELIVERY OF MDA-7/IL-24 TO IMPROVE THERAPEUTIC ERADICATION OF CANCER AND GENERATE PROTECTIVE ANTITUMOR IMMUNITY” (VIRGINIA COMMONWEALTH UNIVERSITY, priority 2015, published 2018).

Data set [1] relates to CD11b+Gr-1+MDSCs. In words: MDSC frequency after MCL-1 inhibitor in tumor-bearing mice (FACS). The class given is in vivo. The protocol: FIG. 6. Potential immune modulation by MCL-1 inhibition. MCL-1 inhibitor reduces MDSCs in tumor-bearing mice. Tumor-bearing mice received BI-97C1 (Sabutoclax) (5 mg/kg or 20 mg/kg) i.p. or left untreated. 24 h later, splenic CD11b+GR-1+MDSCs were assessed by FACS.
Reduction of MDSCs could be explained by the direct cytotoxic effect of BI-97C1 (Sabutoclax), due to its ability to abrogate Bcl-2 protein functions.

For data set [2], the system named is CD8+ T cells. In words: T cell proliferation, 3H-thymidine (TdR) incorporation after anti-CD3/CD28 stimulation. The data set is classed as cell-based. Conditions: 20 ng/ml protein. How it is done: (§1) A. CD8+ T cells were stimulated with anti-CD3/CD28 antibodies in the presence or absence of purified MDA-7/IL-24 protein (20 ng/ml). Cell proliferation was measured using 3H-thymidine (TdR) incorporation assays. P<0.05. B. C57BL/6 mice were injected i.v. with MDA-7/IL-24 protein (10 μg) or PBS. 48 h later, lymph node cells were assessed for IFN-γ-producing CD8+ T cells by intracellular staining.
(§2) The clinical application of immunotherapy is limited by the escape mechanisms cancer cells employ to avoid immune destruction due to immunoediting (e.g., selection of non-immunogenic or antigen loss cancer cell variants) and other immunosuppressive mechanisms at the tumor site. Since cancer-specific toxicity of MDA-7/IL-24 is antigen-independent, the delivery of a cancer-suicide agent in combination with T-cells may overcome the acquired tumor resistance to T-cell therapy. Intriguingly, MDA-7/IL-24 protein enhanced the proliferation of T cells upon TCR ligation (FIG. 8A). Treatment of mice with recombinant MDA-7/IL-24 protein increased the frequency of IFN-γ-expressing CD8+ T cells (FIG. 8B), supporting a role of MDA-7/IL-24 as a pro-Th 1 cytokine.

For data set [3], the system named is IFN-γ-producing CD8+ T cells. The data set can be described thus: IFN-γ-producing CD8+ T cells in lymph nodes after i.v. protein (intracellular staining). Conditions: 10 μg i.v., 48 h later, lymph node cells. The class given is in vivo, C57BL/6 mice. The protocol:
as §1, §2

For `Cc1cc2c(C(=O)NC[C@H](C)c3ccccc3)c(O)c(O)cc2c(O)c1-c1c(C)cc2c(C(=O)NC[C@H](C)c3ccccc3)c(O)c(O)cc2c1O` [BI-97C1, Sabutoclax], the “frequency of CD11b+Gr-1+MDSCs” value in data set [1] (single administration i.p. (5 mg/kg or 20 mg/kg), splenic MDSCs 24 h later) was “substantially reduced”. The toxicity result in data set [1] (single administration in tumor-bearing mice) was “without inducing toxicity”.

B1: MDA-7/IL-24 protein: Melanoma differentiation associated gene-7/Interleukin-24, secreted protein of the IL-10 family (protein)
chain: QEFHFGPCQVKGVVPQKLWEAFWAVKDTMQAQDNITSARLLQQEVLQNVSDAESCYLVHTLLEFYLKTVFKNYHNRTVEVRTLKSFSTLANNFVLIVSQLQPSQENEMFSIRDSAHRRFLLFRRAFKQLDVEAALTKALGEVDILLTWMQKFYKL
Regarding B1, the “proliferation of T cells upon TCR ligation” value in data set [2] is reported as “enhanced”. Besides, the “frequency of IFN-γ-expressing CD8+ T cells” value in data set [3] is reported as “increased”.
